Where two headings read alike, the source gives them in different places.
Key:
Type in all cases: cell-based, human
MiaPaCa2 cells = experiment: MTS viability assay, MiaPaCa2 pancreas cancer cells
Method: (§1) FIG. 2F. Effects of compounds 1-11 on the viability of MiaPaCa2 cells. MiaPaCa2 cells were cultured in DMEM medium supplemented with 10% FBS and 2.5% horse serum. Equal numbers were dispersed into 96-well plates. After 24 h, the cells were incubated with compounds 1-11 (0-30 μM) for 48 h. At the end of the incubation, MTS reagent (20% vol/vol) was added and the plates were incubated for 1-4 h. The OD490 was read with a plate reader. Wells with media but no cells were treated in similar fashion and the values utilized as blank. The results represent the mean±standard deviation of 6 independent determinations.
as §1, with “2I.” for “2F.”, “1, 69-72” for “1-11”, “1, 69-72” for “1-11 (0-30 μM)”
(§2) The cell lines were cultured from frozen stocks originally obtained from ATCC. MDA-MB-231, JIMT-1, DU145, U81, U251 cells were grown in DMEM medium. BT474, A2780s, A2780cp cells were grown in DMEM/F12 medium supplemented with 10% FBS. MiaPaCa2 was cultured in DMEM supplemented with 10% FBS and 2.5% horse serum. PC3 cells were cultured in F12K medium supplemented with 10% FBS. All the media were supplemented with penicillin/streptomycin.
(§3) The effects of the GAELs on the viability of the various epithelial cancer cell lines was determined as previously described. Briefly, equal numbers of the cells were dispersed into 96-well plates. After 24 h, the cells were incubated with the compounds (0-30 μM) for 48 h. At the end of the incubation, MTS reagent (20% vol/vol) was added and the plates were incubated for 1-4 h. The OD490 was read with a plate reader. Wells with media but no cells were treated in similar fashion and the values utilized as blank. The results represent the mean±standard deviation of 6 independent determinations.

JIMT-1 cells = experiment: MTS viability assay, JIMT-1 breast cancer cells
Method: as §1, with “2B.” for “2F.”, “JIMT-1” for “MiaPaCa2”, “FBS.” for “FBS and 2.5% horse serum.”
as §1, with “2J.” for “2F.”, “1, 69-72” for “1-11”, “JIMT-1” for “MiaPaCa2”, “FBS.” for “FBS and 2.5% horse serum.”, “1, 69-72” for “1-11 (0-30 μM)”
as §2, §3

BT-474 cells = experiment: MTS viability assay, BT-474 breast cancer cells; settings: 48 h, MTS
Method: as §1, with “2C.” for “2F.”, “BT-474” for “MiaPaCa2”, “DMEM/F12” for “DMEM”, “FBS.” for “FBS and 2.5% horse serum.”
as §2, §3

DU145 cells = experiment: MTS viability assay, DU145 prostate cancer cells
Method: as §1, with “2D.” for “2F.”, “DU145” for “MiaPaCa2”, “FBS.” for “FBS and 2.5% horse serum.”
as §1, with “2H. Effect” for “2F. Effects”, “1, 69-72” for “1-11”, “DU145” for “MiaPaCa2”, “FBS.” for “FBS and 2.5% horse serum.”, “1, 69-72” for “1-11 (0-30 μM)”
as §2, §3

[1] = system: BT-474, JIMT-1, MDA-MB-231 (breast), DU145, PC3 (prostate), MiaPaCa2 (pancreas); experiment: MTS viability, panel of epithelial cancer cell lines (ranges over the cell lines)
Method: To determine the effect of compounds 1-10 on the viability of the epithelial cancer cell lines, exponentially growing cells, BT-474, JIMT-1, MDA-MB-231 (breast), DU145, PC3 (prostate), MiaPaCa2 (pancreas) were incubated with varying concentrations of 1-8 (0-30 μM) for 48 h followed by viability assays with the MTS reagent.
as §3

PC3 cells = experiment: MTS viability assay, PC3 prostate cancer cells; settings: 48 h, MTS
Method: as §1, with “2E.” for “2F.”, “PC3” for “MiaPaCa2”, “F12K” for “DMEM”, “FBS.” for “FBS and 2.5% horse serum.”
as §2, §3

MDA-MB-231 cells = experiment: MTS viability assay, MDA-MB-231 breast cancer cells
Method: as §1, with “FIG. 2A.” for “FIG. 2F.”, “of MDA-MB231” for “of MiaPaCa2”, “cells. MDA-MB-231” for “cells. MiaPaCa2”, “10% FBS.” for “10% FBS and 2.5% horse serum.”
as §1, with “2K.” for “2F.”, “1, 69-72” for “1-11”, “MDA-MB-231” for “MiaPaCa2”, “FBS.” for “FBS and 2.5% horse serum.”, “1, 69-72” for “1-11 (0-30 μM)”
as §2, §3

[2] = Table 6, 48 h, read-out: MiaPaCa2 CC50
[3] = Table 6, 48 h, read-out: MiaPaCa2 CC90
[4] = Table 6, 48 h, read-out: JIMT1 CC50
[5] = Table 6, 48 h, read-out: JIMT1 CC90
[6] = Table 6, 48 h, read-out: DU145 CC50
[7] = Table 6, 48 h, read-out: DU145 CC90
[8] = Table 6, 48 h, read-out: MB-MDA-231 CC50
[9] = Table 6, 48 h, read-out: MB-MDA-231 CC90
[10] = Table 1A, 48 h, read-out: CC50 values MiaPaCa2
[11] = Table 1B, 48 h, read-out: CC90 values MiaPaCa2
[12] = Table 1A, 48 h, read-out: CC50 values JIMT1
[13] = Table 1B, 48 h, read-out: CC90 values JIMT1
[14] = Table 1B, read-out: CC90 values BT474
[15] = Table 1A, 48 h, read-out: CC50 values DU 145
[16] = Table 1B, 48 h, read-out: CC90 values DU 145
[17] = Table 1A, read-out: CC50 values PC3
[18] = Table 1B, read-out: CC90 values PC3
[19] = Table 1A, 48 h, read-out: CC50 values MD 231
[20] = Table 1B, 48 h, read-out: CC90 values MD 231

Row | SMILES | CC50 (MiaPaCa2 cells; [2]) | CC90 (MiaPaCa2 cells; [3]) | CC50 (JIMT-1 cells; [4]) | CC90 (JIMT-1 cells; [5]) | CC50 (BT-474 cells; Table 6, read-out: BT474 CC50) | CC90 (BT-474 cells; Table 6, read-out: BT474 CC90) | CC50 (DU145 cells; [6]) | CC90 (DU145 cells; [7]) | CC50 (PC3 cells; Table 6, read-out: PC3 CC50) | CC90 (PC3 cells; Table 6, read-out: PC3 CC90) | CC50 (MDA-MB-231 cells; [8]) | CC90 (MDA-MB-231 cells; [9]) | CC50 (MiaPaCa2 cells; [10]) | CC90 (MiaPaCa2 cells; [11]) | CC50 (JIMT-1 cells; [12]) | CC90 (JIMT-1 cells; [13]) | CC90 (BT-474 cells; [14]) | CC50 (DU145 cells; [15]) | CC90 (DU145 cells; [16]) | CC50 (PC3 cells; [17]) | other results
1 | CCCCCCCCCCCCCCCCOC[C@H](COC1O[C@H](CN)[C@@H](O)[C@H](O)[C@H]1NCCCCCCCCCCCCN)OC (some centres unmarked) [Compound 75, 1-O-Hexadecyl-2-O-methyl-3-O-[2′-N-(12-aminododecyl)-2′,6′-diamino-2′,6′-dideoxy-glucopyranoside]-sn-glycerol] | 8.5 µM | 12 µM | 8 µM | 9.5 µM | 13.5 µM | 16.5 µM | 7.5 µM | 9.5 µM | 8.5 µM | 11.5 µM | 5.5 µM | 9.5 µM | – | – | – | – | – | – | – | – | cytotoxicity against all cell lines examined ([1]; tricationic GAELs, FIG. 2O, Table 6): cytotoxic
2 | CCCCCCCCCCCCCCCCOC[C@H](CO[C@@H]1O[C@H](CN)[C@@H](O)[C@H](O)[C@H]1N)OC [Compound 2, 1-O-Hexadecyl-2-O-methyl-3-O-(-2′,6′-diamino-2′,6′-dideoxy-β-D-glucopyranosyl)-sn-glycerol] | – | – | – | – | – | – | – | – | – | – | – | – | 7 µM | 12 µM | 4.2 µM | 6.5 µM | 14 µM | 6 µM | 8.5 µM | 11 µM | CC50 ([1]; range over the cell lines tested, 48 h, read-out: CC50 values, range depending on the cell line): 4.2 to 11.5 µM; CC90 (PC3 cells; [18]): 14 µM; CC50 (MDA-MB-231 cells; [19]): 5.5 µM; CC90 (MDA-MB-231 cells; [20]): 7 µM
3 | CCCCCCCCCCCCCCCCOCC(CO[C@@H]1O[C@H](CO)[C@@H](O)[C@H](O)[C@H]1N)NC(=O)CCCCCCCCCCCCCCC (stereo partly drawn) [Compound 9, 1-O-Hexadecyloxy-2S/R—N-hexadecylacyl-3-(-2′-amino-2′-deoxy-β-D-glucopyranosyl)-glycerol] | – | – | – | – | – | – | – | – | – | – | – | – | > 30 µM | > 30 µM | > 30 µM | > 30 µM | > 30 µM | > 30 µM | > 30 µM | > 30 µM | CC50 (BT-474 cells; Table 1A, read-out: CC50 values BT474): > 30 µM; activity at the highest concentration tested ([1]; 30 μM, all the cell lines tested): not active; CC90 (PC3 cells; [18]): > 30 µM; CC50 (MDA-MB-231 cells; [19]): > 30 µM; CC90 (MDA-MB-231 cells; [20]): > 30 µM
4 | CCCCCCCCCCCCCCCCOC[C@H](COC1O[C@H](CNCCCN)[C@@H](O)[C@H](O)[C@H]1N)OC (some centres unmarked) [Compound 74, 1-O-Hexadecyl-2-O-methyl-3-O-[6′-N-(3-aminopropyl)-2′,6′-diamino-2′,6′-dideoxy-glucopyranoside]-sn-glycerol] | 18.5 µM | > 20 µM | 13.5 µM | 18.5 µM | > 20 µM | > 20 µM | 16.5 µM | 20 µM | 12.5 µM | 20 µM | 13.5 µM | 19.5 µM | – | – | – | – | – | – | – | – | –
